In ChEMBL document CHEMBL5634113, “Synthesis, cytotoxic activity evaluation and mechanistic investigation of novel 3,7-diarylsubstituted 6-azaindoles” (Eur J Med Chem, 2023):
Structures can show the parent of a compound that is named as a salt. Calls of active or inactive are those of the source. The calls are words filed in the database; no cut-off is given here.

Key:
HT-1080 = experiment: Cytotoxicity against human HT-1080 cells assessed as inhibition of cell growth incubated for 72 hrs by MTT assay; assay type: functional, cell-based; conditions: HT-1080, 72 h
MCF7 = experiment: Cytotoxicity against human MCF7 cells assessed as inhibition of cell growth incubated for 72 hrs by MTT assay; assay type: functional, cell-based; conditions: MCF7, 72 h
A-431 [1] = experiment: Cytotoxicity against human A-431 cells assessed as inhibition of cell growth incubated for 72 hrs by MTT assay; assay type: functional, cell-based; conditions: A-431, 72 h
MDA-MB-231 = experiment: Cytotoxicity against human MDA-MB-231 cells assessed as inhibition of cell growth incubated for 72 hrs by MTT assay; assay type: functional, cell-based; conditions: MDA-MB-231, 72 h
[2] = Cytotoxicity against human AG1523 cells assessed as inhibition of cell growth incubated for 72 hrs by MTT assay; assay type: toxicity, cell-based
A-431 [3] = experiment: Induction of cell cycle arrest in human A-431 cells assessed as accumulation of cells at Sub-diploid phase at 100 nM incubated for 24 hrs by RNase/PI staining based flow cytometry analysis (reference value: 1.82%); assay type: functional
A-431 [4] = experiment: Induction of cell cycle arrest in human A-431 cells assessed as accumulation of cells at S phase at 100 nM incubated for 24 hrs by RNase/PI staining based flow cytometry analysis (reference value: 43.35%); assay type: functional
A-431 [5] = experiment: Induction of cell cycle arrest in human A-431 cells assessed as accumulation of cells at G0/G1 phase at 100 nM incubated for 24 hrs by RNase/PI staining based flow cytometry analysis (reference value: 40.98%); assay type: functional
A-431 [6] = experiment: Induction of cell cycle arrest in human A-431 cells assessed as accumulation of cells at G2/M phase at 100 nM incubated for 24 hrs by RNase/PI staining based flow cytometry analysis (reference value: 15.66%); assay type: functional
A-431 [7] = experiment: Genotoxicity in human A-431 cells assessed as upregulation of MDM2 total protein level at IC50 measured after 0 to 24 hrs by multiplex immunoassay; assay type: functional, cell-based; conditions: time 0-24 hrs
[8] = target: Cyclin-dependent kinase inhibitor 1 (Homo sapiens) (UniProt P38936); experiment: Activation of p21 waf1 in human A-431 cells assessed as increase in p21 waf1 protein level at IC50 measured after 0 to 24 hrs by Western blot analysis; assay type: cell-based; conditions: filed as activator, time 0-24 hrs
[9] = target: Ribosomal protein S6 kinase alpha-1 (Homo sapiens) (UniProt Q15418); experiment: Inhibition of p90 RSK phosphorylation at Ser380 residue in human A-431 cells at IC50 measured after 0 to 24 hrs by multiplex immunoassay; assay type: cell-based; conditions: time 0-24 hrs
[10] = target: Mitogen-activated protein kinase 1 (Homo sapiens) (UniProt P28482); experiment: Inhibition of ERK2 phosphorylation at Thr185/Tyr187 residues in human A-431 cells at IC50 measured after 0 to 24 hrs by multiplex immunoassay; assay type: cell-based; conditions: time 0-24 hrs
A-431 [11] = experiment: Genotoxicity in human A-431 cells assessed as upregulation of ATR total protein level at IC50 measured after 0 to 24 hrs by multiplex immunoassay; assay type: functional, cell-based; conditions: time 0-24 hrs
A-431 [12] = experiment: Genotoxicity in human A-431 cells assessed as upregulation of phosphorylated Chk2 at Thr68 residue protein level at IC50 measured after 0 to 24 hrs by multiplex immunoassay; assay type: functional, cell-based; conditions: time 0-24 hrs
A-431 [13] = experiment: Genotoxicity in human A-431 cells assessed as upregulation of phosphorylated p53 at Ser15 residue protein level at IC50 measured after 0 to 24 hrs by multiplex immunoassay; assay type: functional, cell-based; conditions: time 0-24 hrs
A-431 [14] = experiment: Genotoxicity in human A-431 cells assessed as upregulation of p21 total protein level at IC50 measured after 0 to 24 hrs by multiplex immunoassay; assay type: functional, cell-based; conditions: time 0-24 hrs
[15] = target: Cellular tumor antigen p53 (Homo sapiens) (UniProt P04637); experiment: Activation of p53 in human A-431 cells assessed as increase in p53 phosphorylation at Ser15 residue at IC50 measured after 0 to 24 hrs by Western blot analysis; assay type: cell-based; conditions: filed as activator, time 0-24 hrs
A-431 [16] = experiment: Cytotoxicity against human A-431 cells assessed as increase in mitotic nuclei measured after 6 to 24 hrs by DAPI staining based analysis; assay type: functional, cell-based; conditions: time 6-24 hrs
[17] = target: Mitogen-activated protein kinase 3 (Homo sapiens) (UniProt P27361); experiment: Inhibition of ERK1 phosphorylation at Thr202/Tyr204 residues in human A-431 cells at IC50 measured after 0 to 24 hrs by multiplex immunoassay; assay type: cell-based; conditions: time 0-24 hrs
[18] = target: Signal transducer and activator of transcription 3 (Homo sapiens) (UniProt P40763); experiment: Inhibition of STAT3 phosphorylation at Ser727 residue in human A-431 cells at IC50 measured after 0 to 24 hrs by multiplex immunoassay; assay type: cell-based; conditions: time 0-24 hrs
A-431 [19] = experiment: Genotoxicity in human A-431 cells assessed as upregulation of phosphorylated Chk1 at Ser345 residue protein level at IC50 measured after 0 to 24 hrs by multiplex immunoassay; assay type: functional, cell-based; conditions: time 0-24 hrs
[20] = target: Dual specificity mitogen-activated protein kinase kinase 1 (Homo sapiens) (UniProt Q02750); experiment: Inhibition of MEK1 phosphorylation at Ser217/Ser221 residues in human A-431 cells at IC50 measured after 0 to 24 hrs by multiplex immunoassay; assay type: cell-based; conditions: time 0-24 hrs
Dual specificity mitogen-activated protein kinase kinase 1 (Homo sapiens), sequence (Q02750 whole entry): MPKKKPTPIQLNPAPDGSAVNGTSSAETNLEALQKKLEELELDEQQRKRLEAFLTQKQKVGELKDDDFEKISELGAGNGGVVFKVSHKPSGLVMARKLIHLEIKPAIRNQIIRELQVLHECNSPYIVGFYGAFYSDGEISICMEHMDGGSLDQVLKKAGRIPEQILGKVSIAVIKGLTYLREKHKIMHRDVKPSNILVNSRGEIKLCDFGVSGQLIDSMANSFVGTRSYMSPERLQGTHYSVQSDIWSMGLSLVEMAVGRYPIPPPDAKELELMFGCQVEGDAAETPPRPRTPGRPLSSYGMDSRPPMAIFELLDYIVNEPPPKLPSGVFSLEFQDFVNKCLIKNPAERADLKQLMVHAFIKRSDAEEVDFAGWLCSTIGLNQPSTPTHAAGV

Cyclin-dependent kinase inhibitor 1 (Homo sapiens), sequence (P38936 whole entry): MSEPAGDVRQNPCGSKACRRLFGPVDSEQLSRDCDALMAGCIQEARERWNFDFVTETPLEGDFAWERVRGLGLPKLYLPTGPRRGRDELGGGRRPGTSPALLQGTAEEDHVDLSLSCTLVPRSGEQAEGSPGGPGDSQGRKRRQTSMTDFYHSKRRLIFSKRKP
Signal transducer and activator of transcription 3 (Homo sapiens), sequence (P40763 whole entry): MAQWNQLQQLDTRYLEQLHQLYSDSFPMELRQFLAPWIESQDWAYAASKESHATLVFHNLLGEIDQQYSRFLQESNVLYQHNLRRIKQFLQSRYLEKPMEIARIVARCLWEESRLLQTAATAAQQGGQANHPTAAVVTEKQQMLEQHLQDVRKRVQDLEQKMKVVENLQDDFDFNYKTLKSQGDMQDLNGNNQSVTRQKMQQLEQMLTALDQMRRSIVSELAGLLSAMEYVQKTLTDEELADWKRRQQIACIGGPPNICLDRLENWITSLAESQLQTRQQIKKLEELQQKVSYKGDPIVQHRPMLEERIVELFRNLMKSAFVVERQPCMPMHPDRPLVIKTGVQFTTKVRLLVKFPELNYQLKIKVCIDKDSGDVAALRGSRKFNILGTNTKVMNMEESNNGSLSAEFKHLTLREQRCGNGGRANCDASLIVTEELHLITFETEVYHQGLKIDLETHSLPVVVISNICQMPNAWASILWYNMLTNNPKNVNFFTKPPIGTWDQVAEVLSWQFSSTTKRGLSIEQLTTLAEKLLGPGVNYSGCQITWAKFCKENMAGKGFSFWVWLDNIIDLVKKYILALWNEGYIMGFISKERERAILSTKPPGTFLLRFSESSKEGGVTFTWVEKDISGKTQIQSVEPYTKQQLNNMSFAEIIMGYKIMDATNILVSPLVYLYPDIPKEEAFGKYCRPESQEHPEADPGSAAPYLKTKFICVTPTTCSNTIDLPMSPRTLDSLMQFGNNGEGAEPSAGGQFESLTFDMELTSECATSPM
Mitogen-activated protein kinase 1 (Homo sapiens), sequence (P28482 whole entry): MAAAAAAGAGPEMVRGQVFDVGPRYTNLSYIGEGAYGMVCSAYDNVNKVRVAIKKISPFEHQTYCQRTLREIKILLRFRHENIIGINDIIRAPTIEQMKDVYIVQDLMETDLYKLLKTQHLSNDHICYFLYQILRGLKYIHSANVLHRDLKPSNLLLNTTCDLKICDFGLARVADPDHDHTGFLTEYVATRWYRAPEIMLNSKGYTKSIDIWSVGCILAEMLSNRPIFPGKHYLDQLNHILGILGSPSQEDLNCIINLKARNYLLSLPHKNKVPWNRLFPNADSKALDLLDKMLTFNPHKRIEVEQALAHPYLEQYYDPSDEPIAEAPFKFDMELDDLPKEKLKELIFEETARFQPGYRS
Mitogen-activated protein kinase 3 (Homo sapiens), sequence (P27361 whole entry): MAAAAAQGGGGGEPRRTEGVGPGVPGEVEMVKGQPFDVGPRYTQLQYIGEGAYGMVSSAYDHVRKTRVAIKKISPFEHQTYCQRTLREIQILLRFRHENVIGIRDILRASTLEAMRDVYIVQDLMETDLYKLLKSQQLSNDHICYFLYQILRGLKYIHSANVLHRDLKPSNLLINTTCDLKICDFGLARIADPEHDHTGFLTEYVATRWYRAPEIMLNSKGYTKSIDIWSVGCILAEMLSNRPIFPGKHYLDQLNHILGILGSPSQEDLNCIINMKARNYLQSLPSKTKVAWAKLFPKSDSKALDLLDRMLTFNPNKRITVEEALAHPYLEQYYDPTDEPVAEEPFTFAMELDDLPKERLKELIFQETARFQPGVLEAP
Cellular tumor antigen p53 (Homo sapiens), sequence (P04637 whole entry, looked up): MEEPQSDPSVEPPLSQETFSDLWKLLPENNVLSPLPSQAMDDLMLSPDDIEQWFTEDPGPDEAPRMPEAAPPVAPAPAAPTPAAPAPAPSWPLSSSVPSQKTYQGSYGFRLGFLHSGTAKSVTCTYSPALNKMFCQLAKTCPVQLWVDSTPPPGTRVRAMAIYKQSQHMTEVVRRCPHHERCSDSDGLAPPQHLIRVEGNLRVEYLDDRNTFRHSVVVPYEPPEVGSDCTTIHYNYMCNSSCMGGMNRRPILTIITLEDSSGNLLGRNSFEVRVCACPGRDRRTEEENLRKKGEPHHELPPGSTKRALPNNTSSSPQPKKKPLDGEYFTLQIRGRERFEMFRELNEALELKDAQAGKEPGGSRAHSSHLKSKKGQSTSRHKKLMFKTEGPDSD
Ribosomal protein S6 kinase alpha-1 (Homo sapiens), sequence (Q15418 whole entry): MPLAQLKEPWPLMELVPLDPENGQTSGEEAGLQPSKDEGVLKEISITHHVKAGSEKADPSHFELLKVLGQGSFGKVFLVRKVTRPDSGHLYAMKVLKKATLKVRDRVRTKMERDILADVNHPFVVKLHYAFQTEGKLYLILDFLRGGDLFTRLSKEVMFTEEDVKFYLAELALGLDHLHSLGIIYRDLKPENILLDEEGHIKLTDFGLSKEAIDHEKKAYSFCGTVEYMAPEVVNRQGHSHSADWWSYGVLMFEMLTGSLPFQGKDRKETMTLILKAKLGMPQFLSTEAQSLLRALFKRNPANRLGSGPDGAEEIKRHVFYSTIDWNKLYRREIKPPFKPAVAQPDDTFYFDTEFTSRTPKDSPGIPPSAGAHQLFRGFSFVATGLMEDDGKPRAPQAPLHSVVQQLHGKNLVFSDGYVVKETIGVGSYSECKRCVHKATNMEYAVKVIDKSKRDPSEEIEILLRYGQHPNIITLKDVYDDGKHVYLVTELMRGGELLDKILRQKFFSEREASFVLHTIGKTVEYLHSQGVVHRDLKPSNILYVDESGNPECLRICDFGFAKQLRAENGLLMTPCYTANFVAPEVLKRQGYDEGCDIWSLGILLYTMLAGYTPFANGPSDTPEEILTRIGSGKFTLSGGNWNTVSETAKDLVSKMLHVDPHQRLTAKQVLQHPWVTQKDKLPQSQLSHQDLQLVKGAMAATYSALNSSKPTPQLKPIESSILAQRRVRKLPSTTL

SMILES | IC50 (HT-1080) | IC50 (MCF7) | IC50 (A-431 [1]) | IC50 (MDA-MB-231) | IC50 at 72 h [2] | further results
COc1ccc(Cn2cc(-c3ccccc3)c3ccnc(-c4cccc([N+](=O)[O-])c4)c32)cc1 | > 100 µM | > 100 µM | > 100 µM | > 100 µM | > 100 µM | –
COc1ccc(Cn2cc(-c3ccccc3)c3ccnc(-c4ccccc4)c32)cc1 | 13.1 µM | 13.4 µM | 9.89 µM | 22.5 µM | > 100 µM | –
O=[N+]([O-])c1cccc(-c2nccc3c(-c4ccccc4)c[nH]c23)c1 | 3.06 µM | 3.34 µM | 2.6 µM | 4.39 µM | > 100 µM | –
CC(=O)c1ccc(-c2nccc3c(-c4ccccc4)c[nH]c23)cc1 | 0.52 µM | 0.64 µM | 0.1 µM | 0.27 µM | > 100 µM | Activity (A-431 [3]): 39.37%; Activity (A-431 [4]): 20.32%; Activity (A-431 [5]): 14.74%; Activity (A-431 [6]): 64.95%
COc1ccc(Cn2cc(-c3ccccc3)c3ccnc(-c4ccc(Cl)cc4)c32)cc1 | 25.8 µM | 40.8 µM | 10.8 µM | > 100 µM | > 100 µM | –
Fc1cccc(-c2c[nH]c3c(-c4ccc(Cl)cc4)nccc23)c1 | 0.087 µM | 0.41 µM | 0.11 µM | 0.13 µM | 78.6 µM | –
COc1ccc(-c2nccc3c(-c4cccc(F)c4)c[nH]c23)c(OC)c1 | 0.014 µM | 0.14 µM | 0.013 µM | 0.018 µM | 56.3 µM | Activity (A-431 [7]): Active; Activity (A-431 [3]): 29.86%; Activity [8]: Active; inhibition [9]: Active; Activity (A-431 [4]): 12.97%; inhibition [10]: Active; Activity (A-431 [11]): Active; Activity (A-431 [12]): Active; Activity (A-431 [13]): Active; Activity (A-431 [14]): Active; Activity [15]: Active; Activity (A-431 [16]): Active; inhibition [17]: Active; Activity (A-431 [5]): 33%; inhibition [18]: Active; Activity (A-431 [19]): Active; inhibition [20]: Active; Activity (A-431 [6]): 54.04%
COc1ccc(Cn2cc(-c3cccc(F)c3)c3ccnc(-c4ccccc4)c32)cc1 | 14.1 µM | 12.9 µM | 9 µM | 49.8 µM | > 100 µM | –
COc1ccc(Cn2cc(-c3cccc(F)c3)c3ccnc(-c4ccc(OC)cc4OC)c32)cc1 | 8.61 µM | 11.4 µM | 5.32 µM | 18.1 µM | > 100 µM | –
COc1ccc(Cn2cc(-c3cccc(F)c3)c3ccnc(-c4cccc([N+](=O)[O-])c4)c32)cc1 | > 100 µM | > 100 µM | > 100 µM | > 100 µM | > 100 µM | –
COc1ccc(Cn2cc(-c3ccccc3)c3ccnc(-c4ccc(C(C)=O)cc4)c32)cc1 | 41.6 µM | 24.5 µM | > 100 µM | > 100 µM | > 100 µM | –
COc1ccc(Cn2cc(-c3ccccc3)c3ccnc(-c4ccc(OC)cc4OC)c32)cc1 | 7.67 µM | 10.3 µM | 6.2 µM | 15.8 µM | > 100 µM | –
c1ccc(-c2c[nH]c3c(-c4ccccc4)nccc23)cc1 | 0.79 µM | 2.48 µM | 0.54 µM | 1.51 µM | 85.1 µM | –
CC(=O)c1ccc(-c2nccc3c(-c4cccc(F)c4)c[nH]c23)cc1 | 0.47 µM | 0.81 µM | 0.42 µM | 0.42 µM | > 100 µM | –
COc1cccc2c1C(=O)c1c(O)c3c(c(O)c1C2=O)C[C@@](O)(C(=O)CO)C[C@@H]3O[C@H]1C[C@H](N)[C@H](O)[C@H](C)O1 [DOXORUBICIN HYDROCHLORIDE] | 0.007 µM | 0.144 µM | 0.009 µM | 0.096 µM | – | –
COc1ccc(Cn2cc(-c3cccc(F)c3)c3ccnc(-c4ccc(C(C)=O)cc4)c32)cc1 | 13.4 µM | 9.7 µM | 13 µM | 89.2 µM | > 100 µM | –
O=[N+]([O-])c1cccc(-c2nccc3c(-c4cccc(F)c4)c[nH]c23)c1 | 0.82 µM | 4.39 µM | 2.5 µM | 5.12 µM | 49 µM | –
COc1ccc(Cn2cc(-c3cccc(F)c3)c3ccnc(-c4ccc(Cl)cc4)c32)cc1 | > 100 µM | 73.3 µM | 14.3 µM | > 100 µM | > 100 µM | –
Clc1ccc(-c2nccc3c(-c4ccccc4)c[nH]c23)cc1 | 0.056 µM | 0.35 µM | 0.02 µM | 0.051 µM | > 100 µM | Activity (A-431 [3]): 33.54%; Activity (A-431 [4]): 39.69%; Activity (A-431 [5]): 20.59%; Activity (A-431 [6]): 39.73%
COc1ccc(-c2nccc3c(-c4ccccc4)c[nH]c23)c(OC)c1 | 0.012 µM | 0.1 µM | 0.012 µM | 0.017 µM | 79.8 µM | Activity (A-431 [3]): 40.02%; Activity (A-431 [4]): 10.27%; Activity (A-431 [5]): 26.41%; Activity (A-431 [6]): 63.32%
Fc1cccc(-c2c[nH]c3c(-c4ccccc4)nccc23)c1 | 3.15 µM | 2.29 µM | 1.6 µM | 3.65 µM | > 100 µM | –
